Assays:
[1] = xn = mol fraction of the nth substance listed; settings: 101 kPa, Liquid
[2] = excess molar enthalpy (molar enthalpy of mixing); xn = mol fraction of the nth substance listed; settings: 101 kPa, Liquid

CCCC[n+]1cccc(C)c1.F[B-](F)(F)F [1-butyl-3-methylpyridinium tetrafluoroborate] + CCCCO
Settings	excess molar enthalpy [kcal/mol]	mass density [kg/m3]
[1], 298.15 K, x1 = 0.0166	–	819.7
[1], 298.15 K, x1 = 0.7641	–	1136.6
[1], 298.15 K, x1 = 0.8166	–	1147.7
[1], 298.15 K, x1 = 0.8558	–	1155.7
[1], 298.15 K, x1 = 0.904	–	1165.1
[1], 318.15 K, x1 = 0.0191	–	805.5
[1], 318.15 K, x1 = 0.6961	–	1107.5
[1], 318.15 K, x1 = 0.7777	–	1125.9
[1], 318.15 K, x1 = 0.8535	–	1141.6
[1], 318.15 K, x1 = 0.9084	–	1152.1
[1], 318.15 K, x1 = 0.9479	–	1159.4
[2], 318.15 K, x1 = 0.0098	0.0361	–
[2], 318.15 K, x1 = 0.025	0.0684	–
[2], 318.15 K, x1 = 0.0464	0.138	–
[2], 318.15 K, x1 = 0.3603	0.681	–
[2], 318.15 K, x1 = 0.3932	0.684	–
[2], 318.15 K, x1 = 0.445	0.677	–
[2], 318.15 K, x1 = 0.5101	0.652	–
[2], 318.15 K, x1 = 0.5852	0.591	–
[2], 318.15 K, x1 = 0.6705	0.503	–
[2], 318.15 K, x1 = 0.7667	0.378	–
[2], 318.15 K, x1 = 0.8531	0.264	–
[2], 318.15 K, x1 = 0.9346	0.125	–

CCCC[n+]1cccc(C)c1.F[B-](F)(F)F [1-butyl-3-methylpyridinium tetrafluoroborate] + CCO
Settings	excess molar enthalpy [kcal/mol]	mass density [kg/m3]
[1], 298.15 K, x1 = 0.0518	–	851.1
[1], 298.15 K, x1 = 0.0719	–	872.9
[1], 298.15 K, x1 = 0.1054	–	905.6
[1], 298.15 K, x1 = 0.1999	–	975.5
[1], 298.15 K, x1 = 0.2539	–	1006.2
[1], 298.15 K, x1 = 0.3	–	1028.2
[1], 298.15 K, x1 = 0.4054	–	1068.6
[1], 298.15 K, x1 = 0.5082	–	1098.9
[1], 298.15 K, x1 = 0.5895	–	1118
[1], 298.15 K, x1 = 0.664	–	1133
[1], 298.15 K, x1 = 0.7275	–	1144.5
[1], 298.15 K, x1 = 0.7682	–	1151
[1], 318.15 K, x1 = 0.0401	–	821.1
[1], 318.15 K, x1 = 0.0671	–	851
[1], 318.15 K, x1 = 0.0992	–	882.7
[1], 318.15 K, x1 = 0.1497	–	924.5
[1], 318.15 K, x1 = 0.2531	–	989.5
[1], 318.15 K, x1 = 0.3062	–	1015.1
[1], 318.15 K, x1 = 0.4041	–	1053
[1], 318.15 K, x1 = 0.5002	–	1082.2
[1], 318.15 K, x1 = 0.5998	–	1106.3
[1], 318.15 K, x1 = 0.6632	–	1118.8
[1], 318.15 K, x1 = 0.7118	–	1127.7
[1], 318.15 K, x1 = 0.7904	–	1141
[2], 298.15 K, x1 = 0.0052	0.0354	–
[2], 298.15 K, x1 = 0.0159	0.0989	–
[2], 298.15 K, x1 = 0.0279	0.148	–
[2], 298.15 K, x1 = 0.0457	0.203	–
[2], 298.15 K, x1 = 0.0691	0.26	–
[2], 298.15 K, x1 = 0.0972	0.312	–
[2], 298.15 K, x1 = 0.1132	0.338	–
[2], 298.15 K, x1 = 0.1263	0.362	–
[2], 298.15 K, x1 = 0.128	0.368	–
[2], 298.15 K, x1 = 0.145	0.396	–
[2], 298.15 K, x1 = 0.1585	0.405	–
[2], 298.15 K, x1 = 0.1639	0.418	–
[2], 298.15 K, x1 = 0.1838	0.445	–
[2], 298.15 K, x1 = 0.2062	0.47	–
[2], 298.15 K, x1 = 0.2305	0.495	–
[2], 298.15 K, x1 = 0.2577	0.515	–
[2], 298.15 K, x1 = 0.2878	0.531	–
[2], 298.15 K, x1 = 0.3217	0.544	–
[2], 298.15 K, x1 = 0.3623	0.546	–
[2], 298.15 K, x1 = 0.4085	0.527	–
[2], 298.15 K, x1 = 0.4689	0.484	–
[2], 298.15 K, x1 = 0.5396	0.425	–
[2], 298.15 K, x1 = 0.6277	0.348	–
[2], 298.15 K, x1 = 0.7386	0.257	–
[2], 298.15 K, x1 = 0.8712	0.14	–
[2], 298.15 K, x1 = 0.9405	0.0727	–
[2], 318.15 K, x1 = 0.0123	0.0626	–
[2], 318.15 K, x1 = 0.0273	0.129	–
[2], 318.15 K, x1 = 0.0472	0.201	–
[2], 318.15 K, x1 = 0.0704	0.269	–
[2], 318.15 K, x1 = 0.098	0.342	–
[2], 318.15 K, x1 = 0.1279	0.411	–
[2], 318.15 K, x1 = 0.1612	0.475	–
[2], 318.15 K, x1 = 0.1789	0.508	–
[2], 318.15 K, x1 = 0.2034	0.544	–
[2], 318.15 K, x1 = 0.2335	0.577	–
[2], 318.15 K, x1 = 0.2681	0.605	–
[2], 318.15 K, x1 = 0.3063	0.627	–
[2], 318.15 K, x1 = 0.3498	0.644	–
[2], 318.15 K, x1 = 0.4055	0.645	–
[2], 318.15 K, x1 = 0.4787	0.615	–
[2], 318.15 K, x1 = 0.5648	0.549	–
[2], 318.15 K, x1 = 0.6576	0.451	–
[2], 318.15 K, x1 = 0.7668	0.326	–
[2], 318.15 K, x1 = 0.881	0.184	–

CCCC[n+]1cccc(C)c1.F[B-](F)(F)F [1-butyl-3-methylpyridinium tetrafluoroborate] + O
Settings	excess molar enthalpy [kcal/mol]	mass density [kg/m3]
[1], 298.15 K, x1 = 0.0182	–	1027.1
[1], 298.15 K, x1 = 0.0376	–	1050.3
[1], 298.15 K, x1 = 0.0567	–	1067.1
[1], 298.15 K, x1 = 0.0995	–	1093.7
[1], 298.15 K, x1 = 0.1608	–	1116.8
[1], 298.15 K, x1 = 0.2208	–	1131.4
[1], 298.15 K, x1 = 0.2975	–	1143.6
[1], 298.15 K, x1 = 0.3909	–	1154
[1], 298.15 K, x1 = 0.4861	–	1161.5
[1], 298.15 K, x1 = 0.5827	–	1167.2
[1], 298.15 K, x1 = 0.6761	–	1171.8
[1], 298.15 K, x1 = 0.8091	–	1176.6
[1], 298.15 K, x1 = 0.8376	–	1177.6
[1], 298.15 K, x1 = 0.8942	–	1179.4
[1], 318.15 K, x1 = 0.0466	–	1046.8
[1], 318.15 K, x1 = 0.1004	–	1080.4
[1], 318.15 K, x1 = 0.1523	–	1099.8
[1], 318.15 K, x1 = 0.1991	–	1112.4
[1], 318.15 K, x1 = 0.251	–	1122.2
[1], 318.15 K, x1 = 0.3038	–	1130.2
[1], 318.15 K, x1 = 0.4108	–	1141.5
[1], 318.15 K, x1 = 0.5062	–	1148.8
[1], 318.15 K, x1 = 0.5822	–	1153.3
[1], 318.15 K, x1 = 0.7042	–	1158.9
[1], 318.15 K, x1 = 0.7551	–	1160.9
[1], 318.15 K, x1 = 0.7904	–	1162.3
[1], 318.15 K, x1 = 0.8123	–	1163.2
[1], 318.15 K, x1 = 0.8988	–	1165.7
[1], 318.15 K, x1 = 0.918	–	1166.3
[2], 298.15 K, x1 = 0.006	0.0186	–
[2], 298.15 K, x1 = 0.0137	0.0399	–
[2], 298.15 K, x1 = 0.0226	0.0636	–
[2], 298.15 K, x1 = 0.0328	0.0894	–
[2], 298.15 K, x1 = 0.0448	0.117	–
[2], 298.15 K, x1 = 0.058	0.146	–
[2], 298.15 K, x1 = 0.0724	0.175	–
[2], 298.15 K, x1 = 0.0876	0.205	–
[2], 298.15 K, x1 = 0.1038	0.235	–
[2], 298.15 K, x1 = 0.1204	0.264	–
[2], 298.15 K, x1 = 0.1234	0.268	–
[2], 298.15 K, x1 = 0.1415	0.298	–
[2], 298.15 K, x1 = 0.1713	0.326	–
[2], 298.15 K, x1 = 0.1993	0.35	–
[2], 298.15 K, x1 = 0.2307	0.372	–
[2], 298.15 K, x1 = 0.2676	0.387	–
[2], 298.15 K, x1 = 0.3091	0.391	–
[2], 298.15 K, x1 = 0.3573	0.383	–
[2], 298.15 K, x1 = 0.4051	0.366	–
[2], 298.15 K, x1 = 0.4511	0.349	–
[2], 298.15 K, x1 = 0.5139	0.318	–
[2], 298.15 K, x1 = 0.6139	0.261	–
[2], 298.15 K, x1 = 0.7899	0.151	–
[2], 318.15 K, x1 = 0.0058	0.0227	–
[2], 318.15 K, x1 = 0.0136	0.0519	–
[2], 318.15 K, x1 = 0.0231	0.0841	–
[2], 318.15 K, x1 = 0.0339	0.116	–
[2], 318.15 K, x1 = 0.0459	0.149	–
[2], 318.15 K, x1 = 0.0605	0.184	–
[2], 318.15 K, x1 = 0.0774	0.222	–
[2], 318.15 K, x1 = 0.0961	0.26	–
[2], 318.15 K, x1 = 0.1167	0.299	–
[2], 318.15 K, x1 = 0.1225	0.306	–
[2], 318.15 K, x1 = 0.1348	0.329	–
[2], 318.15 K, x1 = 0.1378	0.334	–
[2], 318.15 K, x1 = 0.1574	0.369	–
[2], 318.15 K, x1 = 0.1845	0.402	–
[2], 318.15 K, x1 = 0.2023	0.435	–
[2], 318.15 K, x1 = 0.2358	0.464	–
[2], 318.15 K, x1 = 0.2685	0.488	–
[2], 318.15 K, x1 = 0.3026	0.502	–
[2], 318.15 K, x1 = 0.3403	0.513	–
[2], 318.15 K, x1 = 0.3889	0.512	–
[2], 318.15 K, x1 = 0.4492	0.493	–
[2], 318.15 K, x1 = 0.5301	0.453	–
[2], 318.15 K, x1 = 0.6433	0.366	–
[2], 318.15 K, x1 = 0.8206	0.201	–
